Columns and labels:
Test in all cases: Test C greenhouse herbicide test, pre- and postemergence
Type in all cases: in vivo
[1] = test system: crabgrass, large (large crabgrass, Digitaria sanguinalis)
In short: (§1)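 Two application timings: at sowing into a soil/sand blend, and on 2–18 cm seedlings in peat-vermiculite potting mix. A non-phytotoxic, surfactant-containing solvent carried the compounds. Plants were compared with controls and rated visually on 0–100 after 13–15 d.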

[2] = test system: johnsongrass (Sorghum halepense)
In short: as §1

[3] = test system: waterhemp (common waterhemp, Amaranthus rudis)
In short: as §1

[4] = test system: barnyardgrass (Echinochloa crus-galli)
In short: as §1

[5] = test system: foxtail, giant (giant foxtail, Setaria faberii)
In short: as §1

[6] = test system: velvetleaf (Abutilon theophrasti)
In short: as §1

[7] = test system: blackgrass (Alopecurus myosuroides)
In short: as §1

[8] = test system: galium (catchweed bedstraw, Galium aparine)
In short: as §1

[9] = test system: pigweed (Amaranthus retroflexus)
In short: as §1

[10] = test system: wheat (winter wheat, Triticum aestivum)
In short: as §1

soybean (Glycine max) = test system: soybean (Glycine max)
In short: as §1

[11] = test system: oilseed rape (Brassica napus)
In short: as §1

[12] = test system: morningglory (Ipomoea coccinea)
In short: as §1

[13] = test system: ragweed (common ragweed, Ambrosia elatior)
In short: as §1

[14] = test system: lambsquarters (Chenopodium album)
In short: as §1

[15] = test system: nutsedge, yellow (yellow nutsedge, Cyperus esculentus)
In short: as §1

[16] = Postemergence, 125 g ai/ha, scale 0 to 100, 0 is no effect, 100 is complete control
[17] = Postemergence, 250 g ai/ha, scale 0 to 100, 0 no effect, 100 complete control, 13 to 15 d
[18] = Preemergence, 31 g ai/ha, scale 0 to 100, 0 is no effect, 100 is complete control
[19] = Preemergence, 62 g ai/ha, scale 0 to 100, 0 is no effect, 100 is complete control
[20] = Preemergence, 125 g ai/ha, scale 0 to 100, 0 is no effect, 100 is complete control
[21] = Preemergence, 250 g ai/ha, scale 0 to 100 (0 no effect, 100 complete control)
[22] = postemergence, 62 g ai/ha, scale 0 to 100, 0 no effect, 100 complete control
[23] = Postemergence, 31 g ai/ha, 0 to 100 scale (0 no effect, 100 complete control)

SMILES: COC(=O)Oc1c(C)nn(C)c(=O)c1-c1c(C)sc2c(C)cc(C)cc12 [Compound 81]
- Plant response rating, Crabgrass, Large [1, 16]: 40
- Plant response rating, Crabgrass, Large [1, 17]: 55
- Plant response rating, Crabgrass, Large [1, 18]: 90
- Plant response rating, Crabgrass, Large [1, 19]: 75
- Plant response rating, Crabgrass, Large [1, 20]: 90
- Crabgrass, Large plant response rating [1, 21]: 98
- Crabgrass, Large plant response rating [1, 22]: 35
- Plant response rating, Johnsongrass [2, 16]: 5
- Plant response rating, Johnsongrass [2, 17]: 70
- Plant response rating, Johnsongrass [2, 18]: 25
- Plant response rating, Johnsongrass [2, 19]: 5
- Plant response rating, Johnsongrass [2, 20]: 45
- Johnsongrass plant response rating [2, 21]: 98
- Johnsongrass plant response rating [2, 22]: 5
- Plant response rating, Waterhemp [3, 16]: 85
- Plant response rating, Waterhemp [3, 17]: 80
- Plant response rating, Waterhemp [3, 18]: 85
- Plant response rating, Waterhemp [3, 19]: 85
- Plant response rating, Waterhemp [3, 20]: 90
- Waterhemp plant response rating [3, 21]: 100
- Waterhemp plant response rating [3, 22]: 60
- Barnyardgrass plant response rating [4, 23]: 25
- Plant response rating, Barnyardgrass [4, 16]: 35
- Plant response rating, Barnyardgrass [4, 17]: 60
- Plant response rating, Barnyardgrass [4, 18]: 30
- Plant response rating, Barnyardgrass [4, 19]: 70
- Plant response rating, Barnyardgrass [4, 20]: 80
- Barnyardgrass plant response rating [4, 21]: 98
- Barnyardgrass plant response rating [4, 22]: 35
- Plant response rating, Foxtail, Giant [5, 16]: 90
- Plant response rating, Foxtail, Giant [5, 17]: 90
- Plant response rating, Foxtail, Giant [5, 18]: 80
- Plant response rating, Foxtail, Giant [5, 19]: 98
- Plant response rating, Foxtail, Giant [5, 20]: 98
- Foxtail, Giant plant response rating [5, 21]: 100
- Foxtail, Giant plant response rating [5, 22]: 85
- Plant response rating, Velvetleaf [6, 16]: 90
- Plant response rating, Velvetleaf [6, 17]: 90
- Plant response rating, Velvetleaf [6, 18]: 35
- Plant response rating, Velvetleaf [6, 19]: 65
- Plant response rating, Velvetleaf [6, 20]: 85
- Velvetleaf plant response rating [6, 21]: 98
- Velvetleaf plant response rating [6, 22]: 85
- Blackgrass plant response rating [7, 23]: 60
- Plant response rating, Blackgrass [7, 16]: 90
- Plant response rating, Blackgrass [7, 17]: 90
- Plant response rating, Blackgrass [7, 18]: 60
- Plant response rating, Blackgrass [7, 19]: 80
- Plant response rating, Blackgrass [7, 20]: 90
- Blackgrass plant response rating [7, 21]: 90
- Blackgrass plant response rating [7, 22]: 85
- Plant response rating, Galium [8, 16]: 95
- Plant response rating, Galium [8, 17]: 95
- Plant response rating, Galium [8, 18]: 90
- Plant response rating, Galium [8, 19]: 95
- Plant response rating, Galium [8, 20]: 95
- Galium plant response rating [8, 21]: 95
- Galium plant response rating [8, 22]: 95
- Plant response rating, Pigweed [9, 16]: 85
- Plant response rating, Pigweed [9, 17]: 90
- Plant response rating, Pigweed [9, 18]: 98
- Plant response rating, Pigweed [9, 19]: 95
- Plant response rating, Pigweed [9, 20]: 95
- Pigweed plant response rating [9, 21]: 100
- Pigweed plant response rating [9, 22]: 85
- Plant response rating, Wheat [10, 16]: 0
- Plant response rating, Wheat [10, 17]: 0
- Plant response rating, Wheat [10, 18]: 0
- Plant response rating, Wheat [10, 19]: 0
- Plant response rating, Wheat [10, 20]: 0
- Wheat plant response rating [10, 21]: 0
- Wheat plant response rating [10, 22]: 0
- Plant response rating, Soybean (soybean (Glycine max); [16]): 5
- Plant response rating, Soybean (soybean (Glycine max); [17]): 0
- Plant response rating, Soybean (soybean (Glycine max); [18]): 0
- Plant response rating, Soybean (soybean (Glycine max); [19]): 100
- Plant response rating, Soybean (soybean (Glycine max); [20]): 0
- Soybean plant response rating (soybean (Glycine max); [21]): 0
- Soybean plant response rating (soybean (Glycine max); [22]): 0
- Plant response rating, Oilseed Rape [11, 16]: 85
- Plant response rating, Oilseed Rape [11, 17]: 45
- Plant response rating, Oilseed Rape [11, 18]: 0
- Plant response rating, Oilseed Rape [11, 19]: 5
- Plant response rating, Oilseed Rape [11, 20]: 40
- Oilseed Rape plant response rating [11, 21]: 95
- Oilseed Rape plant response rating [11, 22]: 65
- Plant response rating, Morningglory [12, 16]: 100
- Plant response rating, Morningglory [12, 17]: 98
- Plant response rating, Morningglory [12, 18]: 80
- Plant response rating, Morningglory [12, 19]: 85
- Plant response rating, Morningglory [12, 20]: 90
- Morningglory plant response rating [12, 21]: 95
- Morningglory plant response rating [12, 22]: 100
- Plant response rating, Ragweed [13, 16]: 70
- Plant response rating, Ragweed [13, 17]: 85
- Plant response rating, Ragweed [13, 18]: 85
- Plant response rating, Ragweed [13, 19]: 95
- Plant response rating, Ragweed [13, 20]: 95
- Ragweed plant response rating [13, 21]: 98
- Ragweed plant response rating [13, 22]: 75
- Plant response rating, Lambsquarters [14, 16]: 98
- Plant response rating, Lambsquarters [14, 17]: 100
- Plant response rating, Lambsquarters [14, 18]: 75
- Plant response rating, Lambsquarters [14, 19]: 90
- Plant response rating, Lambsquarters [14, 20]: 85
- Lambsquarters plant response rating [14, 21]: 95
- Lambsquarters plant response rating [14, 22]: 95
- Plant response rating, Nutsedge, Yellow [15, 16]: 90
- Plant response rating, Nutsedge, Yellow [15, 17]: 90
- Plant response rating, Nutsedge, Yellow [15, 18]: 60
- Plant response rating, Nutsedge, Yellow [15, 19]: 70
- Plant response rating, Nutsedge, Yellow [15, 20]: 80
- Nutsedge, Yellow plant response rating [15, 21]: 95
- Nutsedge, Yellow plant response rating [15, 22]: 85

— patent US10597388B2, “Pyridazinone herbicides” (FMC CORPORATION, priority 2014, dated 2020)
